# Experiments:
# human plasma clots [1] = target: T1, human plasma clots (Homo sapiens, UniProt P00488); assay: Incorporation into human plasma clots (in vitro plasma clot assay); assay type: biochemical; conditions: for % specific uptake*: % retained with thrombin − % retained no thrombin; for % retained in plasma clot assay (with thrombin): human plasma with thrombin and calcium chloride, 60 minutes, ca. 20° C.
# T1 construct: Factor XIII is transformed into its active form Factor XIIIa by thrombin in the presence of calcium ions; from tissue; host or cells: human plasma, clotted in vitro with thrombin and calcium chloride
# T1 sequence (P00488 39-732): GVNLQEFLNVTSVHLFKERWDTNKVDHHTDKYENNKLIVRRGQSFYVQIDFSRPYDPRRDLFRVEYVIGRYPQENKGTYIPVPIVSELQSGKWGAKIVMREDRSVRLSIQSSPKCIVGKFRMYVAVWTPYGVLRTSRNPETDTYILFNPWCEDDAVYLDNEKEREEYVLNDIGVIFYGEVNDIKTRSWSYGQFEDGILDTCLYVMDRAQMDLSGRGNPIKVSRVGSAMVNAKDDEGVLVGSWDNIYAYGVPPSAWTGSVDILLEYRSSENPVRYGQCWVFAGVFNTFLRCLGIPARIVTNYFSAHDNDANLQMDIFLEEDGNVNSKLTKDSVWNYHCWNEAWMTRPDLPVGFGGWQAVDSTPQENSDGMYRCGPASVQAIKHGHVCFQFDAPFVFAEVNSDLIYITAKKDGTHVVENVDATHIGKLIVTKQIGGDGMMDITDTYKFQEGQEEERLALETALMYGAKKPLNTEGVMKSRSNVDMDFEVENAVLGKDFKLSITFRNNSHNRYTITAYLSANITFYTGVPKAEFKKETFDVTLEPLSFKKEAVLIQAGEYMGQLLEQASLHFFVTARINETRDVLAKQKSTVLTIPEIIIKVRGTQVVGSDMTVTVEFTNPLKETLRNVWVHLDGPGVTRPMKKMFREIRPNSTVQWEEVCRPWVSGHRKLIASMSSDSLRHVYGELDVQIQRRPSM
# Experimental: (§1) Incorporation of radiolabelled substrates into fibrin was investigated by induction of an in vitro human plasma clot in the following manner. To a siliconised 5 ml glass vial was added, (a) 800 μl of Tris(hydroxymethyl)aminomethane buffered saline pH 7.5 containing calcium chloride (50 mM Tris, 150 mM sodium chloride, 4 mM calcium chloride.), (b) 40 μl of physiological salt solution containing 100 units of thrombin per ml, (c) 400 μl of human plasma containing the radiolabelled substrate at a concentration of typically 10 kBq/ml. To aid induction of clot a roughened glass rod was added to the reaction vial. Control vials were prepared similarly but with the omission of thrombin and calcium chloride.
# (§2) The proportion of total radioactivity was calculated by counting in suitable detection apparatus.
# (§3) The fraction of radioactivity retained on the filter, after subtraction of the non-specific binding determined from the control, is a measure of incorporation into the filtered clots.
# human plasma clots [2] = assay: as above; assay type: biochemical; conditions: control vials without thrombin and calcium chloride, 60 minutes
# Experimental: as §1, §2, §3
# Factor XIIIa = target: T2, Factor XIIIa (Homo sapiens, UniProt P00488); assay: Factor XIIIa dependency of incorporation (dimethylcasein uptake, normal vs Factor XIII deficient plasma); assay type: biochemical; conditions: 1 KBq/ml, 60 minutes; uptake in normal plasma minus Factor XIII deficient plasma
# T2 construct: Factor XIII is transformed into its active form Factor XIIIa by thrombin in the presence of calcium ions; from tissue; host or cells: human plasma
# T2 sequence (P00488 39-732 limits assumed): T1 sequence (P00488 39-732)
# Experimental: The assay was changed by replacing the mercaptoethanol with aprotinin at a final concentration of 2 μg/ml, and dimethylcasein (DMC) was used instead of casein.
# [3] = Normal rat biodistribution; assay type: in vivo; conditions: i.v., male Wistar rats, Mean±SD n=3
# Experimental: The resolution of a clot image is dependant on the combination of rate of incorporation of the radiopharmaceutical and its blood/tissues clearance rate. For this reason the biodistribution of several compounds has been determined in rats. Male Wistar (100-150 g) rats were injected i.v. with 0.1-0.2 ml of radiolabelled tracer solution (8 MBq/ml) and dissected at different times post-injection. The % ID in each of the selected tissues was measured. Some animals were kept in metabolism cages to be able to determine the % ID excreted in urine and faeces. The dissection times used for the majority of the agents was 2, 15, 30, 60, 240 min. Data are shown as % ID, Mean±SD, (n=3).
# [4] = system: clots induced in rat inferior vena cava; assay: Incorporation into clots induced in a rat model (rat inferior vena cava model); assay type: in vivo; conditions: rat IVC model; for Clot/Blood / Clot/Heart / Clot/Liver / Clot/Lung: 60 min; for % ID/g (clot uptake) / Relative conc (cpm/g of clot by dose/g animal): compound injected 5 min post-induction, clot removed after 60 min
# Experimental: The rats (Male Wistar, 250-350 g) were anaesthetised with 15% urethane. After laparotomy, the vena cava was isolated and freed of surrounding fat tissue. […] The average weight of the clots formed in this model was around 27 mg, n=32, (5-50 mg range). The so compounds were injected 5 min post-induction. After 60 min the animals were sacrificed and the clot removed, weighed and counted. Other tissues e.g. blood, lung, heart, were also dissected and counted. The uptake of tracer into the clot was determined as the relative concentration (cpm/g of clot by dose/g animal ) and clot to background tissue.
smiles,measurement,setting,value
"CC(=NO)C(C)(C)NCC(C)(CNC(=O)CCCCCN)CNC(C)(C)C(C)=NO (centres unmarked) [Compound 4, 3,3,6,9,9-pentamethyl-6-N-(6aminohexoyl)aminomethyl-4,8-diazaundecane-2,10-dione dioxime]",% specific uptake*,human plasma clots [1],2.6%
same,% retained in plasma clot assay (with thrombin),human plasma clots [1],3%
same,% retained in plasma clot assay (no thrombin),human plasma clots [2],0.4%
same,% specific DMC casein uptake,Factor XIIIa,2%
same,% ID Blood,[3]; 2 min post-injection,10.33 ± 1.2 % ID
same,% ID GI Tract,[3]; 2 min post-injection,13.6 ± 0.8 % ID
same,% ID Heart,[3]; 2 min post-injection,0.33 + 0.06 % ID
same,% ID Kidney,[3]; 2 min post-injection,8.34 ± 2.7 % ID
same,% ID Liver,[3]; 2 min post-injection,19.9 ± 0.87 % ID
same,% ID Lung,[3]; 2 min post-injection,1.08 ± 0.15 % ID
same,% ID Muscle,[3]; 2 min post-injection,22.6 ± 0.8 % ID
same,% ID Urine,[3]; 2 min post-injection,2.44 ± 1.68 % ID
same,% ID Blood,[3]; 30 min post-injection,0.98 ± 0.18 % ID
same,% ID GI Tract,[3]; 30 min post-injection,62.7 ± 2.7 % ID
same,% ID Heart,[3]; 30 min post-injection,0.04 + 0.02 % ID
same,% ID Kidney,[3]; 30 min post-injection,2.39 ± 0.81 % ID
same,% ID Liver,[3]; 30 min post-injection,5.06 ± 0.89 % ID
same,% ID Lung,[3]; 30 min post-injection,0.16 % ID
same,% ID Muscle,[3]; 30 min post-injection,5.27 ± 0.4 % ID
same,% ID Urine,[3]; 30 min post-injection,19.49 ± 1.96 % ID
same,% ID Blood,[3]; 60 min post-injection,0.43 ± 0.07 % ID
same,% ID GI Tract,[3]; 60 min post-injection,68.6 ± 0.4 % ID
same,% ID Heart,[3]; 60 min post-injection,0.02 + 0.02 % ID
same,% ID Kidney,[3]; 60 min post-injection,1.49 ± 0.04 % ID
same,% ID Liver,[3]; 60 min post-injection,5.3 ± 0.9 % ID
same,% ID Lung,[3]; 60 min post-injection,0.1 ± 0.04 % ID
same,% ID Muscle,[3]; 60 min post-injection,2.26 ± 0.05 % ID
same,% ID Urine,[3]; 60 min post-injection,18.81 ± 0.85 % ID
same,% ID Blood,[3]; 240 min post-injection,0.21 ± 0.08 % ID
same,% ID GI Tract,[3]; 240 min post-injection,70.1 ± 1.9 % ID
same,% ID Heart,[3]; 240 min post-injection,0.01 + 0.04 % ID
same,% ID Kidney,[3]; 240 min post-injection,1.51 ± 0.02 % ID
same,% ID Liver,[3]; 240 min post-injection,3.81 ± 0.92 % ID
same,% ID Lung,[3]; 240 min post-injection,0.06 ± 0.01 % ID
same,% ID Muscle,[3]; 240 min post-injection,1.94 ± 0.35 % ID
same,% ID Urine,[3]; 240 min post-injection,19.88 ± 3.03 % ID
same,Clot/Blood,[4],2.3
same,Clot/Heart,[4],4.0
same,Clot/Liver,[4],0.27
same,Clot/Lung,[4],2.7
same,% ID/g (clot uptake),[4],0.18 ± 0.06 % ID/g
same,Relative conc (cpm/g of clot by dose/g animal),[4],0.52 ± 0.2
"CC(CNCc1ccccc1O)(CNCc1ccccc1O)CNC(=O)c1ccc(S(=O)(=O)NCCCCCN)cc1 [Compound 25, N,N′-bis-(2-hydroxybenzyl)-2-(4-N-(5-aminopentyl)amidosulphonyl)benzamidomethyl-2-methyl-propane-1,3-diamine]",% specific uptake*,human plasma clots [1],12.9%
same,% retained in plasma clot assay (with thrombin),human plasma clots [1],15%
same,% retained in plasma clot assay (no thrombin),human plasma clots [2],1.9%
same,% specific DMC casein uptake,Factor XIIIa,26%
same,% ID Blood,[3]; 2 min post-injection,23.0 ± 2.9 % ID
same,% ID GI Tract,[3]; 2 min post-injection,8.53 ± 0.66 % ID
same,% ID Heart,[3]; 2 min post-injection,0.74 + 0.1 % ID
same,% ID Kidney,[3]; 2 min post-injection,5.37 ± 1.3 % ID
same,% ID Liver,[3]; 2 min post-injection,13.6 ± 2.47 % ID
same,% ID Lung,[3]; 2 min post-injection,3.42 ± 0.39 % ID
same,% ID Muscle,[3]; 2 min post-injection,25.7 ± 2.0 % ID
same,% ID Urine,[3]; 2 min post-injection,0.11 ± 0.06 % ID
same,% ID Blood,[3]; 15 min post-injection,3.9 ± 0.17 % ID
same,% ID GI Tract,[3]; 15 min post-injection,45.68 ± 4.1 % ID
same,% ID Heart,[3]; 15 min post-injection,0.16 + 0.01 % ID
same,% ID Kidney,[3]; 15 min post-injection,7.13 ± 0.4 % ID
same,% ID Liver,[3]; 15 min post-injection,13.5 ± 0.14 % ID
same,% ID Lung,[3]; 15 min post-injection,1.37 ± 0.03 % ID
same,% ID Muscle,[3]; 15 min post-injection,8.93 ± 0.38 % ID
same,% ID Urine,[3]; 15 min post-injection,4.62 ± 2.9 % ID
same,% ID Blood,[3]; 30 min post-injection,2.12 ± 0.34 % ID
same,% ID GI Tract,[3]; 30 min post-injection,54.7 ± 2.09 % ID
same,% ID Heart,[3]; 30 min post-injection,0.1 + 0.03 % ID
same,% ID Kidney,[3]; 30 min post-injection,5.6 ± 0.1 % ID
same,% ID Liver,[3]; 30 min post-injection,9.66 ± 1.65 % ID
same,% ID Lung,[3]; 30 min post-injection,1.17 ± 0.01 % ID
same,% ID Muscle,[3]; 30 min post-injection,6.43 ± 0.41 % ID
same,% ID Urine,[3]; 30 min post-injection,11.6 ± 2.0 % ID
same,% ID Blood,[3]; 60 min post-injection,1.84 ± 0.19 % ID
same,% ID GI Tract,[3]; 60 min post-injection,55.87 ± 2.5 % ID
same,% ID Heart,[3]; 60 min post-injection,0.08 + 0.03 % ID
same,% ID Kidney,[3]; 60 min post-injection,4.24 ± 0.4 % ID
same,% ID Liver,[3]; 60 min post-injection,6.73 ± 0.48 % ID
same,% ID Lung,[3]; 60 min post-injection,0.96 ± 0.11 % ID
same,% ID Muscle,[3]; 60 min post-injection,4.95 ± 0.09 % ID
same,% ID Urine,[3]; 60 min post-injection,17.5 ± 1.7 % ID
same,% ID Blood,[3]; 240 min post-injection,0.62 ± 0.16 % ID
same,% ID GI Tract,[3]; 240 min post-injection,71.3 ± 0.7 % ID
same,% ID Heart,[3]; 240 min post-injection,0.02 + 0.01 % ID
same,% ID Kidney,[3]; 240 min post-injection,3.19 ± 0.1 % ID
same,% ID Liver,[3]; 240 min post-injection,3.97 ± 0.53 % ID
same,% ID Lung,[3]; 240 min post-injection,0.21 ± 0.05 % ID
same,% ID Muscle,[3]; 240 min post-injection,1.3 ± 0.38 % ID
same,% ID Urine,[3]; 240 min post-injection,16.81 ± 0.43 % ID
same,Clot/Blood,[4],3.3
same,Clot/Heart,[4],5
same,Clot/Liver,[4],0.65
same,Clot/Lung,[4],1.5
same,% ID/g (clot uptake),[4],0.29 ± 0.09 % ID/g
same,Relative conc (cpm/g of clot by dose/g animal),[4],0.8 ± 0.2

# From US6897209B2, “Labelled factor XIIIa substrates” (GE Healthcare Limited, priority 1997, dated 2005)
